Experimental data as given in patent US5582997A, “Lysine/leucine polypeptides, mixture sets and libraries thereof” (priority 1994, dated 1996).
Where no end group is shown, it is not given here.

Experiments:
[1] = system: Staphylococcus aureus (ATCC 29213); assay type: cell-based; details: for IC50 (μg/ml) against S. aureus: individual polypeptides
Procedure: The polypeptide libraries of Example 1 were assayed for activity against Staphylococcus aureus [(ATCC 29213); ATCC, 12301 Parklawn Drive, Rockville, Md.]
(§1) To initiate the exponential phase of bacterial growth prior to the assay, a sample of bacteria grown overnight (about 18 hours) at 37° C. in Mueller Hinton broth (MH-Becton Dickinson Microbiology Systems) was reinoculated and incubated at 37° C. A final concentration of […] was used in all assays, vortexed and diluted 10-fold in Yeast Media (YM) broth (Difco Laboratories, Detroit, Mich.), for an approximate final concentration of 10^5 to 5×10^5 CFU/ml. The assays were carried out in 96-well tissue culture plates (Costar, Pleasanton, Calif.), as described in Blondelle et al., Biochem., 31:12688-12694 (1992). In brief, a bacterial suspension in 2× broth was added to the polypeptides mixture sets at concentrations derived from serial two-fold dilutions varying from 1000 μg/ml to 4 μg/ml. The plates were then incubated 21 hours at 37° C. The relative percent growth of the bacteria was determined by the optical density at 620 nm (OD620) using a Titertek Multiskan Plus apparatus (Flow Laboratories, McLean, Va.). The concentration necessary to inhibit 50 percent bacterial growth (IC50) was then calculated using the software program Graphpad (ISI, San Diego, Calif.).

E. coli ATCC 25922 = assay type: cell-based; details: for IC50 (μg/ml) against E. coli: individual polypeptides
Procedure: as §1
Studies similar to those with S. aureus were carried out using E. coli ATCC 25922. Here, results were not as dramatic, but enhancements in activity of about 2-fold were observed using the set libraries of Example 1.

[2] = system: human erythrocytes (red blood cells; RBCs); assay: Hemolytic activity; assay type: cell-based; details: for HC50 (μg/ml) against Erythrocytes: red cells of human
Procedure: The hemolytic activities of the polypeptide mixture sets were determined by using human erythrocytes (red blood cells; RBCs). The cells were washed three times with phosphate-buffered saline (PBS/35 mM phosphate buffer--0.15M NaCl, pH 7.0) and resuspended in PBS. The hemolytic activity of the polypeptide sets were determined as described in Blondelle et al., Biochem. Biophys. Acta, 1202:331-336 (1993) using 96 well tissue culture plates. In brief, 100 μl of 0.5 percent RBC solution were added to an equal volume of peptides in PBS. The plates were incubated for one hour at 37° C. and the optical density (OD) of the supernatant was measured at 414 nm. The concentration in peptide necessary to lyse 50 percent RBCs (HD50) was then determined for each peptide using a sigmoidal curve fitting method (Graphpad).

[3] = Decarboxylase-like activity: catalysed decarboxylation of oxalacetate; assay type: biochemical; details: for kcat × 10^3 (S^-1): values are kcat × 10^3
Procedure: Each peptide mixture was assayed at 0.2 mM in the presence of 11.4 mM of oxalacetic acid (C4 H4 O5) at pH 7.0 (dilution done in PBS--35 mM phosphate buffer--0.15M NaCl) and 22° C. The kinetics of the decarboxylation reaction were monitored by UV spectroscopy at 280 nm for 45 minutes and the initial rate "v" was calculated directly from the kinetic software included with the spectrophotometer (Hewlett Packard Diode Array Spectrophotometer 8452A).
Based upon the scanning assay studies, a series of 144 individual polypeptides was prepared and assayed as above except that the oxalacetic acid concentration was 11.5 mM. These polypeptides had the sequence of SEQ ID NO:2 with residues at positions Xaa^6 being Glu, Lys or Trp; residues at Xaa^9 being Ala, Asn or Trp; residues at Xaa^13 being Glu, Gln, Val or Trp; and residues at position Xaa^16 being Asp, Met, Gln or Arg (3×3×4×4=144).

Substance | IC50 (μg/ml) against S. aureus [1] | IC50 (μg/ml) against E. coli (E. coli ATCC 25922) | HC50 (μg/ml) against Erythrocytes [2] | other results
YKLLKLLLPKLKGLLFKL-NH2 [SEQ ID NO: 3, YKLLKLLLPKLKGLLFKL] | 1.71 µg/mL | 2.40 µg/mL | 24.41 µg/mL | 
YKLLKLLLPKLKPLLFKL-NH2 [SEQ ID NO: 6, YKLLKLLLPKLKPLLFKL] | 2.11 µg/mL | 1.98 µg/mL | 54.74 µg/mL | 
YKLLKLLLPKLKPLLPKL-NH2 [SEQ ID NO: 8, YKLLKLLLPKLKPLLPKL] | 22.82 µg/mL | 3.14 µg/mL | > 125 µg/mL | Kcat /Km (S^-1 M^-1) ([3]; Table 4): 0.53 S^-1 M^-1; Km ([3]; Table 4): 8 mM; kcat × 10^3 (S^-1) ([3]; Table 4): 4.22 S^-1
YKLLKLLLPKLKGLLPKL-NH2 [SEQ ID NO: 5, YKLLKLLLPKLKGLLPKL] | 5.14 µg/mL | 2.65 µg/mL | > 125 µg/mL | 
YKLLKLLLPKLKPLLIKL-NH2 [SEQ ID NO: 7, YKLLKLLLPKLKPLLIKL] | 2.81 µg/mL | 1.87 µg/mL | 68.90 µg/mL | 
YKLLKKLLKKLKKLLKKL-NH2 [SEQ ID NO: 9, YKLLKKLLKKLKKLLKKL-NH2, reference compound] |  | 9 µg/mL |  | IC50 value ([1]; ATCC 29213): 16 µg/mL; IC50 (E. coli ATCC 25922; ATCC 25922, 18 h): 9 µg/mL; HD50 value [2]: 27 µg/mL; Kcat /Km (S^-1 M^-1) ([3]; Table 3): 0.70 S^-1 M^-1; Km ([3]; Table 3, 0.2 mM peptide, oxalacetic acid 2.8 to 22.8 mM, pH 7.0, 22° C.): 13.5 mM; kcat × 10^3 (S^-1) ([3]; Table 3): 9.5 S^-1
YKLLKELLAKLKWLLRKL-NH2 [YKLLKELLAKLKWLLRKL-NH2] |  |  |  | Kcat /Km (S^-1 M^-1) ([3]; Table 4): 2.66 S^-1 M^-1; Km ([3]; Table 4): 5.66 mM; kcat × 10^3 (S^-1) ([3]; Table 4): 15.08 S^-1
YKLLKLLLPKLKGLLIKL-NH2 [SEQ ID NO: 4, YKLLKLLLPKLKGLLIKL] | 2.52 µg/mL | 3.61 µg/mL | 28.41 µg/mL | 
